The subject of one experiment is KB. Description: Cytotoxicity against human KB cells. The format is functional, cell-based.
Another experiment relates to LoVo. Description: Cytotoxicity against human LoVo cells. The format is functional, cell-based.

In brackets after ≈: the same amount, converted by molar mass.

As usually defined, the IC50 is the midpoint of a concentration-inhibition curve. A lower IC50 goes with inhibition by little substance. With `CC[C@H](C)[C@H](O)C(=O)N[C@@H](CC(C)C)C(=O)N(C)[C@@H](CCC(N)=O)C(=O)N[C@H](C(=O)NCC(=O)N(C)[C@H](Cc1ccccc1)C(=O)N1CCC[C@H]1C(=O)OC)[C@@H](C)CC` [TASIAMIDE], the IC50 in the experiment on KB amounted to 0.48 µg/mL (≈ 0.578 µM); in the experiment on LoVo it was 3.47 µg/mL (≈ 4.18 µM).

Values taken from ChEMBL document CHEMBL1150640, “Tasiamide, a cytotoxic peptide from the marine cyanobacterium Symploca sp” (J Nat Prod, 2002).
